Experimental data taken from ChEMBL document CHEMBL1201862, “PubChem BioAssay data set” (2004).
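96-well plates; 48 h exposure; 5 concentrations. Endpoints by linear interpolation between flanking doses. Not reached: highest tested concentration assigned. GI50 marks 50% less growth.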 Activity calls are given as the source filed them. Rule as the data show it: active = GI50 up to about 1.1 µM and inactive = higher. Where a SMILES comes first, the peptide text is derived from it. The star is where a group is joined. Boc = CC(C)(C)OC(=O)*

Tests used:
Test in all cases: NCI-60 cell line screen, 48 h
HOP-62 = system: HOP-62
SK-OV-3 = system: SK-OV-3
CCRF-CEM = system: CCRF-CEM
RPMI-8226 = system: RPMI-8226
EKVX = system: EKVX
HT-29 = system: HT-29
HCT-15 = system: HCT-15
SF-295 = system: SF-295
LOX IMVI = system: LOX IMVI
MDA-MB-231 = system: MDA-MB-231
SN12C = system: SN12C
OVCAR-8 = system: OVCAR-8
HOP-92 = system: HOP-92
MOLT-4 = system: MOLT-4
OVCAR-4 = system: OVCAR-4
MCF7 = system: MCF7
K562 = system: K562
SF-539 = system: SF-539
SF-268 = system: SF-268
T47D = system: T47D

| SMILES | GI50 (HOP-62) | GI50 (SK-OV-3) | GI50 (CCRF-CEM) | GI50 (RPMI-8226) | GI50 (EKVX) | GI50 (HT-29) | GI50 (HCT-15) [µM] | GI50 (SF-295) | GI50 (LOX IMVI) | GI50 (MDA-MB-231) | GI50 (SN12C) | GI50 (OVCAR-8) | GI50 (HOP-92) | GI50 (MOLT-4) | GI50 (OVCAR-4) | GI50 (MCF7) | GI50 (K562) | GI50 (SF-539) | GI50 (SF-268) | GI50 (T47D) |
| --- | --- | --- | --- | --- | --- | --- | --- | --- | --- | --- | --- | --- | --- | --- | --- | --- | --- | --- | --- | --- |
| COC(=O)[C@]1(c2cc3ccccc3n2S(=O)(=O)c2ccccc2)CC2CN(C(=O)OCc3ccccc3)C1C1OC(C)(C)OC21 (stereo not given in full) | > 100 µM (inactive) | > 100 µM (inactive) | > 100 µM (inactive) | 60.1 µM (inactive) | > 100 µM (inactive) | > 100 µM (inactive) | > 100 | > 100 µM (inactive) | > 100 µM (inactive) | > 100 µM (inactive) | > 100 µM (inactive) | > 100 µM (inactive) | 10.2 µM (inactive) | > 100 µM (inactive) | > 100 µM (inactive) | > 100 µM (inactive) |  |  |  |  |
| COC(=O)C(COC(=O)/C=C/c1ccc(OC(C)=O)c(OC(C)=O)c1)OC(=O)/C=C/c1ccc(OC(C)=O)c(OC(C)=O)c1 (stereo not given) | 10.2 µM (inactive) |  | 3.38 µM (inactive) | 11.6 µM (inactive) | 17.5 µM (inactive) | 6.9 µM (inactive) | 5.38 | 14.3 µM (inactive) | 5.16 µM (inactive) | 6.7 µM (inactive) | 14.6 µM (inactive) | 11.8 µM (inactive) | 18 µM (inactive) | 1.95 µM (inactive) | 15.3 µM (inactive) | 6.61 µM (inactive) | 3.48 µM (inactive) | 10.8 µM (inactive) | 12.4 µM (inactive) |  |
| NC(=O)c1coc(C2OC(CO)C(O)C2O)n1 (stereo not given) | > 100 µM (inactive) | > 100 µM (inactive) | > 100 µM (inactive) | > 100 µM (inactive) | > 100 µM (inactive) | > 100 µM (inactive) | > 100 |  | > 100 µM (inactive) |  | > 100 µM (inactive) |  | > 100 µM (inactive) | > 100 µM (inactive) | > 100 µM (inactive) |  | > 100 µM (inactive) | > 100 µM (inactive) | > 100 µM (inactive) |  |
| Cc1ccc(C(=O)O)cc1S(=O)(=O)Nn1cnc2ccc(S(=O)(=O)Nc3ccccc3C(=O)O)cc2c1=O | > 100 µM (inactive) | > 100 µM (inactive) | > 100 µM (inactive) | 54.5 µM (inactive) | > 100 µM (inactive) | > 100 µM (inactive) | > 100 | 26.1 µM (inactive) | > 100 µM (inactive) | > 100 µM (inactive) | > 100 µM (inactive) | > 100 µM (inactive) | > 100 µM (inactive) | > 100 µM (inactive) | > 100 µM (inactive) | > 100 µM (inactive) | 1.78 µM (inactive) | > 100 µM (inactive) | > 100 µM (inactive) |  |
| Cc1cc(C)nc(NS(=O)(=O)c2ccc(NC(=O)c3c4ccccc4nc4ccccc34)cc2)n1 | 61.7 µM (inactive) | > 100 µM (inactive) | > 100 µM (inactive) | 47.3 µM (inactive) | > 100 µM (inactive) | 50.8 µM (inactive) | 65.9 | > 100 µM (inactive) | 81.1 µM (inactive) | > 100 µM (inactive) | > 100 µM (inactive) | 47.9 µM (inactive) | > 100 µM (inactive) | > 100 µM (inactive) | > 100 µM (inactive) | > 100 µM (inactive) | > 100 µM (inactive) | > 100 µM (inactive) | > 100 µM (inactive) |  |
| CC(C)(CN1CCCCC1)C(=O)CC(SCCS(=O)(=O)O)c1ccc(Cl)cc1 (stereo not given) | 11.5 µM (inactive) | 15.5 µM (inactive) | 2.74 µM (inactive) | 3.31 µM (inactive) | 3.67 µM (inactive) | 3.52 µM (inactive) | 2.19 | 0.925 µM (active) |  | 3.1 µM (inactive) | 4.56 µM (inactive) | 3.23 µM (inactive) | 2.26 µM (inactive) | 2.92 µM (inactive) | 3.84 µM (inactive) | 3.3 µM (inactive) | 3.09 µM (inactive) | 2.3 µM (inactive) |  |  |
| CCC(C)(O)c1cn(-c2cccc(S(=O)(=O)O)c2)nn1 (stereo not given) | > 100 µM (inactive) | > 100 µM (inactive) | > 100 µM (inactive) | > 100 µM (inactive) | > 100 µM (inactive) | > 100 µM (inactive) | > 100 | > 100 µM (inactive) | > 100 µM (inactive) |  | > 100 µM (inactive) | > 100 µM (inactive) | > 100 µM (inactive) | > 100 µM (inactive) | > 100 µM (inactive) |  | > 100 µM (inactive) | > 100 µM (inactive) | > 100 µM (inactive) |  |
| C(=N/c1ccccc1C1SCCCS1)/c1ccccc1 | > 100 µM (inactive) | > 100 µM (inactive) | > 100 µM (inactive) | > 100 µM (inactive) | > 100 µM (inactive) | > 100 µM (inactive) | > 100 | > 100 µM (inactive) | > 100 µM (inactive) | > 100 µM (inactive) | > 100 µM (inactive) | > 100 µM (inactive) | > 100 µM (inactive) | > 100 µM (inactive) | > 100 µM (inactive) | > 100 µM (inactive) | > 100 µM (inactive) | > 100 µM (inactive) | > 100 µM (inactive) |  |
| COc1cc(/C=N\O[Si](C)(C)C(C)(C)C)ccc1O[Si](C)(C)C(C)(C)C | > 100 µM (inactive) | > 100 µM (inactive) | 42.9 µM (inactive) | 56.6 µM (inactive) | > 100 µM (inactive) | 47.3 µM (inactive) | 27.4 | 78.5 µM (inactive) | 26.6 µM (inactive) |  | > 100 µM (inactive) | 64.1 µM (inactive) | 25.4 µM (inactive) | 37.8 µM (inactive) | > 100 µM (inactive) |  | 32.5 µM (inactive) | 41.7 µM (inactive) | 67.9 µM (inactive) |  |
| COc1cccc(C2c3cc4c(cc3OC(N3CCCC3)C2C)OCO4)c1OC (stereo not given) | 8.17 µM (inactive) |  | 2.77 µM (inactive) | 3.61 µM (inactive) | 6.49 µM (inactive) | 2.65 µM (inactive) | 2.25 | 1.92 µM (inactive) | 1.96 µM (inactive) |  | 3.02 µM (inactive) | 2.96 µM (inactive) |  | 2.77 µM (inactive) |  | 4.58 µM (inactive) | 3.17 µM (inactive) | 3.33 µM (inactive) | 2.89 µM (inactive) | 2.47 µM (inactive) |
| CN(C)[C@@H]1C(O)=C(C(=O)NCNCCCC(=O)O)C(=O)[C@@]2(O)C(O)=C3C(=O)c4c(O)cccc4[C@@](C)(O)[C@H]3C[C@@H]12 | > 100 µM (inactive) | > 100 µM (inactive) | > 100 µM (inactive) | > 100 µM (inactive) | > 100 µM (inactive) | > 100 µM (inactive) | > 100 | > 100 µM (inactive) | > 100 µM (inactive) |  | > 100 µM (inactive) | > 100 µM (inactive) | > 100 µM (inactive) | > 100 µM (inactive) | > 100 µM (inactive) |  | > 100 µM (inactive) | > 100 µM (inactive) | > 100 µM (inactive) |  |
| CCSc1n/c(=C\c2ccco2)c2nncn12 | > 100 µM (inactive) | > 100 µM (inactive) | > 100 µM (inactive) | > 100 µM (inactive) | > 100 µM (inactive) | > 100 µM (inactive) | > 100 | > 100 µM (inactive) | > 100 µM (inactive) | > 100 µM (inactive) | > 100 µM (inactive) | > 100 µM (inactive) | 40.7 µM (inactive) | > 100 µM (inactive) |  | > 100 µM (inactive) | > 100 µM (inactive) |  | > 100 µM (inactive) |  |
| CC(NC(=O)C(NC(=O)OC(C)(C)C)C(C)C)C(=O)NCC(=O)O (stereo not drawn) (Boc-Val-Ala-Gly-OH; configuration not given here) | > 100 µM (inactive) | > 100 µM (inactive) |  | > 100 µM (inactive) | > 100 µM (inactive) | > 100 µM (inactive) | > 100 | > 100 µM (inactive) |  |  | > 100 µM (inactive) | > 100 µM (inactive) | > 100 µM (inactive) | > 100 µM (inactive) |  |  | > 100 µM (inactive) | > 100 µM (inactive) | > 100 µM (inactive) | > 100 µM (inactive) |
| COc1ccc(-c2nc(N)nc(-c3cc(C)ccc3O)c2Cl)cc1 | 41.7 µM (inactive) | 29.9 µM (inactive) | > 100 µM (inactive) | > 100 µM (inactive) | 20.3 µM (inactive) | > 100 µM (inactive) | > 100 | 60.1 µM (inactive) | 58.9 µM (inactive) |  | 76.7 µM (inactive) | 43.2 µM (inactive) | 55.1 µM (inactive) | > 100 µM (inactive) | 11.3 µM (inactive) |  | > 100 µM (inactive) | 31.7 µM (inactive) | 26.4 µM (inactive) |  |
| Cc1nc2c(O)cc3c4c(n(Cc5ccccc5)c3c2nc1C)C(=O)CCC4 | 12.7 µM (inactive) | 14.6 µM (inactive) | > 100 µM (inactive) | > 100 µM (inactive) | > 100 µM (inactive) | > 100 µM (inactive) | > 100 | 34 µM (inactive) | 64.1 µM (inactive) | > 100 µM (inactive) | > 100 µM (inactive) | 12.2 µM (inactive) | 15.4 µM (inactive) | > 100 µM (inactive) | 13.9 µM (inactive) | 19.1 µM (inactive) | 93.5 µM (inactive) | 17.5 µM (inactive) | 4.71 µM (inactive) |  |
| O=C(Nc1cc(Cl)c(Cl)cc1Cl)C(=O)C1C=CCS1(=O)=O (stereo not given) | > 100 µM (inactive) | > 100 µM (inactive) | > 100 µM (inactive) | > 100 µM (inactive) | > 100 µM (inactive) | > 100 µM (inactive) | > 100 | > 100 µM (inactive) | > 100 µM (inactive) |  | 93.5 µM (inactive) | > 100 µM (inactive) | 26.8 µM (inactive) | > 100 µM (inactive) | > 100 µM (inactive) |  | > 100 µM (inactive) | > 100 µM (inactive) | > 100 µM (inactive) |  |
